Assay results taken from the OPERA property sets (Mansouri et al. 2018).
Peptide text beside a SMILES is read from it.

Settings: not given

**Q.** For `CN(C)C(=O)c1cccs1`, which logP is on record?
**A.** 0.75

**Q.** With `N#CCNc1ccccc1C(N)=O` as the compound, how does the logP read?
**A.** 0.5

**Q.** Which logP does the source give for `O=C(O)c1ccc(F)cc1` here?
**A.** 2.07

**Q.** Which logP does the source give for `COc1c(O)c(C)c(C)c(O)c1OC` here?
**A.** 1.6

**Q.** Which logP does the source give for `NNC(=O)c1ccccc1[N+](=O)[O-]` here?
**A.** -0.54

**Q.** With `CC12CCC(=O)C=C1CCC1C3CCC4(CCC(=O)O4)C3CCC12C` (stereo not given) as the compound, how does the logP read?
**A.** 2.98

**Q.** Which logP does the source give for `CC1(C)N=C(N)N=C(N)N1c1ccccc1` here?
**A.** 0.28

**Q.** Which logP does the source give for `CC(=O)C(=Cc1ccc(C)cc1)C(C)=O` here?
**A.** 2.14

**Q.** Which logP does the source give for `CNC(=S)NCCSCc1c[nH]cn1` here?
**A.** 0.16

**Q.** For `CCC(CC)C(=O)NC(CO)C(O)c1ccc([N+](=O)[O-])cc1` (stereo not given), which logP is on record?
**A.** 1.71

**Q.** For `CCN(CC)CCSC(=NO)c1nc(-c2cccc3ccccc23)no1`, which logP is on record?
**A.** 3.87

**Q.** For `C=C[C@@]12COC(=O)C(=C)[C@@H]1[C@H]1OC(=O)C(=C)[C@@H]1[C@@H](O)C2`, which logP is on record?
**A.** 0.31

**Q.** Which logP does the source give for `O=C(NP(=O)(N1CC1)N1CC1)c1cccc(Br)c1` here?
**A.** 1.43

**Q.** For `Brc1ccc2cccnc2c1`, which logP is on record?
**A.** 2.92

**Q.** With `Cc1cc(Cl)cc(Cl)c1NC1=NCCN1` as the compound, how does the logP read?
**A.** 2.38

**Q.** For `S=C=Nc1ccc(-c2ccccc2)cc1`, which logP is on record?
**A.** 4.66

**Q.** For `CCCCn1nnc2ccccc21`, which logP is on record?
**A.** 2.57

**Q.** Which logP does the source give for `CCCC(C)O` (stereo not given) here?
**A.** 1.19

**Q.** For `NC(=O)Nc1ccccc1Cl`, which logP is on record?
**A.** 1.27

**Q.** With `COc1ccc(C=CC(=O)O)cc1` as the compound, how does the logP read?
**A.** 2.68

**Q.** Which logP does the source give for `CN(C)CCN(C)C` here?
**A.** 0.3

**Q.** With `CC(=O)O[C@H]1C[C@H](O[C@H]2[C@@H](O)C[C@H](O[C@H]3[C@@H](O)C[C@H](O[C@H]4CC[C@@]5(C)[C@H](CC[C@@H]6[C@@H]5C[C@@H](O)[C@]5(C)[C@@H](C7=CC(=O)OC7)CC[C@]65O)C4)O[C@@H]3C)O[C@@H]2C)O[C@H](C)[C@H]1O[C@@H]1O[C@H](CO)[C@@H](O)[C@H](O)[C@H]1O` as the compound, how does the logP read?
**A.** 0.07

**Q.** With `CN(C)C(=O)Nc1ccc(Cl)c(Cl)c1` as the compound, how does the logP read?
**A.** 2.68

**Q.** With `COc1ccc(-c2nc3ccncc3n2C)c(OC)c1` as the compound, how does the logP read?
**A.** 2.68

**Q.** Which logP does the source give for `c1ncc2nc[nH]c2n1` here?
**A.** -0.37

**Q.** Which logP does the source give for `CC(CO)NCc1ccccc1` (stereo not given) here?
**A.** 1.28

**Q.** Which logP does the source give for `CSCC[C@H](N)C(=O)O` here?
**A.** -1.87

**Q.** Which logP does the source give for `CC(=O)Nc1ccncc1` here?
**A.** 0.5

**Q.** With `CNC(=O)Oc1cccc2ccccc12` as the compound, how does the logP read?
**A.** 2.36

**Q.** For `CCCCOCc1ccccc1NC(=O)OCCN1CCCCC1`, which logP is on record?
**A.** 3.94

**Q.** Which logP does the source give for `CNC(=O)Nc1ccccc1` here?
**A.** 1.12

**Q.** For `CN(C)CC/C=C1\c2ccccc2Sc2ccc(Cl)cc21`, which logP is on record?
**A.** 5.18

**Q.** With `ICCCI` as the compound, how does the logP read?
**A.** 3.02

**Q.** With `COC1C(OC(C)=O)CC(=O)OC(C)CC=CC=CC(O)C(C)CC(CC=O)C1OC1OC(C)C(OC2CC(C)(O)C(OC(=O)CC(C)C)C(C)O2)C(N(C)C)C1O` (stereo not given) as the compound, how does the logP read?
**A.** 2.39

**Q.** With `COC(=O)c1cnc2n(c1=O)C(C(C)C)CCC2` (stereo not given) as the compound, how does the logP read?
**A.** 0.99

**Q.** Which logP does the source give for `Oc1c(Cl)cc(Cl)c(Cl)c1Cc1c(O)c(Cl)cc(Cl)c1Cl` here?
**A.** 7.54

**Q.** With `C1=CCOC1` as the compound, how does the logP read?
**A.** 0.46

**Q.** With `CCC(=O)NN` as the compound, how does the logP read?
**A.** -1

**Q.** Which logP does the source give for `O=S1(=O)OCC2C(CO1)C1(Cl)C(Cl)=C(Cl)C2(Cl)C1(Cl)Cl` (stereo not given) here?
**A.** 3.66

**Q.** For `O=C(O)[C@@H]1CCCN1`, which logP is on record?
**A.** -2.54

**Q.** Which logP does the source give for `CC(=O)N[C@@H](Cc1c[nH]c2ccccc12)C(=O)N[C@H](C(N)=O)C(C)C` (Ac-Trp-Val-NH2) here?
**A.** 0.73

**Q.** For `CCCCSCS(=O)CC(CO)NC(=O)C=Cc1c(C)[nH]c(=O)[nH]c1=O` (stereo not given), which logP is on record?
**A.** 0.14

**Q.** With `CCC1=C(N2CC2)C(=O)C(C)=C(N2CC2)C1=O` as the compound, how does the logP read?
**A.** 1.35

**Q.** For `CCCCCCOc1ccc(S(N)(=O)=O)cc1`, which logP is on record?
**A.** 2.93

**Q.** Which logP does the source give for `C=CCOC(=O)c1ccccc1C(=O)OCC=C` here?
**A.** 3.23

**Q.** For `NC(=O)c1ccccc1C(N)=O`, which logP is on record?
**A.** -1.73

**Q.** Which logP does the source give for `O=[As](O)(O)c1ccccc1` here?
**A.** 0.06

**Q.** With `O=C(O)c1cccc(C(F)(F)F)c1` as the compound, how does the logP read?
**A.** 2.95

**Q.** Which logP does the source give for `C=C1C(=O)OC2C1CCC(C)C1(O)C=CC(=O)C21C` (stereo not given) here?
**A.** 0.77

**Q.** Which logP does the source give for `CNc1nc(C)nc2c1ncn2[C@@H]1O[C@H](CO)C[C@@H]1F` here?
**A.** 0.64

**Q.** Which logP does the source give for `CN(C)/N=N/c1ccccc1CO` here?
**A.** 1.73

**Q.** With `C[C@]12CC[C@@H]3c4ccc(O)cc4CC[C@H]3[C@@H]1C[C@@H](O)[C@@H]2O` as the compound, how does the logP read?
**A.** 2.45

**Q.** For `c1c[nH]nn1`, which logP is on record?
**A.** -0.29

**Q.** With `CON(C)C(=O)Nc1ccc(Cl)c(Cl)c1` as the compound, how does the logP read?
**A.** 3.2

**Q.** Which logP does the source give for `Cc1cc(Br)cnc1NS(=O)(=O)c1ccc(N)cc1` here?
**A.** 2.05

**Q.** With `Cc1ncc([N+](=O)[O-])n1CCNC(=O)OC(C)C` as the compound, how does the logP read?
**A.** 0.88

**Q.** Which logP does the source give for `CCCCNC(N)=O` here?
**A.** 0.41

**Q.** With `O=C(O)c1cc2ccccc2o1` as the compound, how does the logP read?
**A.** 2.41

**Q.** With `CC1=NOC(=O)C1=NNc1ccccc1Cl` as the compound, how does the logP read?
**A.** 2.6

**Q.** For `CCCCC1C(=O)NC(=O)NC1=O`, which logP is on record?
**A.** 0.77

**Q.** For `COC(=O)c1cccc(N=NN(C)C)c1`, which logP is on record?
**A.** 3.12

**Q.** Which logP does the source give for `S=C1CCCN1` here?
**A.** -0.05

**Q.** Which logP does the source give for `CCCCCCCNC(=O)c1ccccc1` here?
**A.** 3.94

**Q.** Which logP does the source give for `CCCCN(CCCC)N=O` here?
**A.** 2.63

**Q.** For `O=C1CC(c2ccc(C(F)(F)F)cc2)Cc2c1c(=O)c1cc(Cl)ccc1n2O` (stereo not given), which logP is on record?
**A.** 3.46

**Q.** Which logP does the source give for `c1ccc(COc2ccccc2)cc1` here?
**A.** 3.79

**Q.** Which logP does the source give for `CCc1cc(-c2ccccc2)nnc1NCCN1CCOCC1` here?
**A.** 2.53

**Q.** With `Nc1cc(Cl)c(Cl)cc1N` as the compound, how does the logP read?
**A.** 2

**Q.** With `CCCC(O)C(C(=O)O)c1ccc(-c2ccccc2)cc1` (stereo not given) as the compound, how does the logP read?
**A.** 3.75

**Q.** With `CC(=O)Nc1cn[nH]c1` as the compound, how does the logP read?
**A.** -0.38

**Q.** With `CC(C)c1ccccc1OC(=O)c1ccc(N)cc1O` as the compound, how does the logP read?
**A.** 4.28

**Q.** For `O=[N+]([O-])c1ccc(O)c(O)c1`, which logP is on record?
**A.** 1.66

**Q.** Which logP does the source give for `OCCCl` here?
**A.** 0.03

**Q.** Which logP does the source give for `Nc1nc(N)nc(-c2ccccc2)n1` here?
**A.** 1.36

**Q.** Which logP does the source give for `C[C@]1(O)CC[C@H]2[C@@H]3CCC4=CC(=O)CC[C@@H]4[C@H]3CC[C@@]21C` here?
**A.** 2.99

**Q.** Which logP does the source give for `CN(C)CCCc1ccccc1` here?
**A.** 2.73

**Q.** For `O=C(OC1CCCCC1)n1cc(F)c(=O)[nH]c1=O`, which logP is on record?
**A.** 1.42

**Q.** Which logP does the source give for `Nc1ccc(S(=O)(=O)Nc2ncccn2)cc1` here?
**A.** -0.09

**Q.** Which logP does the source give for `O=C(O)CSCc1ccccc1` here?
**A.** 2.1

Same assay, conditions: pH 5.0

**Q.** Which logD does the source give for `N=C(NCCCCCCNC(=N)NC(=N)Nc1ccc(Cl)cc1)NC(=N)Nc1ccc(Cl)cc1` here?
**A.** 0.08
